The target in series [1] is CYP2D6 (Homo sapiens (Human), UniProt P10635). The series can be described thus: CYP inhibition test, CYP2D6. It is filed as in vitro ADME. As to conditions: pooled human liver microsomes; dextromethorphan O-demethylation; given as 'five kinds'. An excerpt:
(§1) Using commercially available pooled human hepatic microsome, and employing, as markers, 7-ethoxyresorufin O-deethylation (CYP1A2), tolbutamide methyl-hydroxylation (CYP2C9), mephenytoin 4'-hydroxylation (CYP2C19), dextromethorphan 0-demethylation (CYP2D6), and terfenadine hydroxylation (CYP3A4) as typical substrate metabolism reactions of human main five CYP enzyme forms (CYP1A2, 2C9, 2C19, 2D6, 3A4), an inhibitory degree of each metabolite production amount by the compound of the present invention was assessed. The reaction conditions are as follows: substrate, 0.5 μmol/L ethoxyresorufin (CYP1A2), 100 μmol/L tolbutamide (CYP2C9), 50 μmol/L S-mephenitoin (CYP2C19), 5 μmol/L dextromethorphan (CYP2D6), 1 μmol/L terfenedine (CYP3A4); reaction time, 15 minutes; reaction temperature, 37° C.; enzyme, pooled human liver microsomes 0.2 mg protein/mL; concentrations of the compound of the present invention, 1, 5, 10, 20 μmol/L (four points). As a reaction solution, each five kinds of substrates, human liver microsomes, or compound of the present invention in 50 mmol/L Hepes buffer were added to a 96-well plate at the composition as described above, and NADPH, as a cofactor was added to initiate metabolism reactions. After the incubation at 37° C. for 15 minutes, a methanol/acetonitrile=1/[…]) solution was added to stop the reaction. After the centrifugation at 3000 rpm for 15 minutes, resorufin (CYP1A2 metabolite) in the supernatant was quantified by a fluorescent multilabel counter or LC/MS/MS, and tolbutamide hydroxide (CYP2C9 metabolite), mephenytoin 4' hydroxide (CYP2C19 metabolite), dextrorphan (CYP2D6 metabolite), and terfenadine alcohol (CYP3A4 metabolite) were quantified by LC/MS/MS. Addition of only DMSO being a solvent dissolving a drug to a reaction system was adopted as a control (100%). Remaining activity (%) was calculated. IC50 was calculated by reverse presumption by a logistic model using the concentration and an inhibition rate.
(In general: Liver microsomes are a subcellular fraction often used to study metabolism.)

Series [2] in a line: Metabolism stability test (human liver microsomes). It is filed as in vitro ADME. As to conditions: compound concentration 0.5 μmol/L, 37° C., 30 minutes, NADPH. The procedure: Using commercially available pooled human hepatic microsomes, the compound of the present invention was reacted for a constant time, a remaining rate was calculated by comparing a reacted sample and an unreacted sample, thereby, a degree of metabolism of the compound of the present invention in liver was assessed.
A reaction was performed (oxidative reaction) at 37° C. for 0 minute or 30 minutes in the presence of 1 mmol/L NADPH in 0.2 mL of a buffer (50 mmol/L Tris-HCl pH 7.4, 150 mmol/L potassium chloride, 10 mmol/L magnesium chloride) containing 0.5 mg protein/mL of human liver microsomes. After the reaction, 50 μL of the reaction solution was added to 100 μL of a methanol/acetonitrile=1/1 (v/v) solution, mixed and centrifuged at 3000 rpm for 15 minutes. The compound of the present invention in the supernatant was quantified by LC/MS/MS, and a remaining amount of the compound of the present invention after the reaction was calculated, letting a compound amount at 0 minute reaction time to be 100%.

The target of series [3] is CYP2C9 (Homo sapiens (Human), UniProt P11712). The series can be described thus: CYP inhibition test, CYP2C9. The series is classed as in vitro ADME. The note with it: pooled human liver microsomes; tolbutamide methyl-hydroxylation; given as 'five kinds'.
CYP2C9, sequence (P11712 whole entry): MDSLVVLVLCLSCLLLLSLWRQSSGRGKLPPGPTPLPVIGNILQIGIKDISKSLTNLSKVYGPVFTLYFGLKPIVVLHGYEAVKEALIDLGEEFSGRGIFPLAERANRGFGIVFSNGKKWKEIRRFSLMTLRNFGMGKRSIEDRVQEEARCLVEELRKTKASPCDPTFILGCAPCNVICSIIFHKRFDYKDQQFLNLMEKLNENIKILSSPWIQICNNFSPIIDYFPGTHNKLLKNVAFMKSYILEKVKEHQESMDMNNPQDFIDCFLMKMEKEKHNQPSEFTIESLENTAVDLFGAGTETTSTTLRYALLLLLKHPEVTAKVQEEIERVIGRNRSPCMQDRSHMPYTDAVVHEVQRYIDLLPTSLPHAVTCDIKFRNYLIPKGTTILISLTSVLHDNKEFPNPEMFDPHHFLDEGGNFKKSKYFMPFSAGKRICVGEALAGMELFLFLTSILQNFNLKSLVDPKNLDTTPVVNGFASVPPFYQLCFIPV
Excerpt: as §1

Series [4] has as its target CYP3A4 (Homo sapiens (Human), UniProt P08684). The series can be described thus: CYP inhibition test, CYP3A4. It is filed as in vitro ADME. As to conditions: pooled human liver microsomes; terfenadine hydroxylation; given as 'five kinds'.
Excerpt: as §1

Series [5] is described as follows: BA test (oral absorption). It is filed as in vivo. As to conditions: plasma; mice or SD rats; from AUCs of oral and intravenous administration. The procedure:
Materials and methods for experiments to evaluate oral absorption
(1) Animals: the mice or SD rats were used.
(2) Breeding conditions: the mice or SD rats were allowed to freely take solid food and sterilized tap water.
(3) Setting of dosage and grouping: Oral administration and intravenous administration were performed with a predetermined dosage. Grouping was set as below. (dosage changed per compound)
Oral administration: 1 to 30 mg/kg (n=2 to 3)
Intravenous administration: 0.5 to 10 mg/kg (n=2 to 3)
(4) Preparation of administration solution: Oral administration was performed in the form of a suspension or a solution. Intravenous administration was performed after solubilization.
(5) Routes of administration: Oral administration was performed mandatory into the stomach by oral sonde. Intravenous administration was performed from caudal vein or femoral vein by syringes with needle.
(6) Evaluation items: blood was collected over time, and the plasma concentration of the compound of the present invention was measured by LC/MS/MS.
(7) Statistical analysis: regarding the transition of the plasma concentration of the compound of the present invention, the area under the plasma concentration-time curve (AUC) was calculated by non-linear least squares program WinNonlin (registered trademark), and the bioavailability (BA) of the compound of the present invention was calculated from the AUCs of the oral administration group and intravenous administration group.

In series [6] the target is CYP1A2 (Homo sapiens (Human), UniProt P05177). The series can be described thus: CYP inhibition test, CYP1A2. It is filed as in vitro ADME. The note with it: pooled human liver microsomes; 7-ethoxyresorufin O-deethylation; given as 'five kinds'.
CYP1A2, sequence (P05177 whole entry): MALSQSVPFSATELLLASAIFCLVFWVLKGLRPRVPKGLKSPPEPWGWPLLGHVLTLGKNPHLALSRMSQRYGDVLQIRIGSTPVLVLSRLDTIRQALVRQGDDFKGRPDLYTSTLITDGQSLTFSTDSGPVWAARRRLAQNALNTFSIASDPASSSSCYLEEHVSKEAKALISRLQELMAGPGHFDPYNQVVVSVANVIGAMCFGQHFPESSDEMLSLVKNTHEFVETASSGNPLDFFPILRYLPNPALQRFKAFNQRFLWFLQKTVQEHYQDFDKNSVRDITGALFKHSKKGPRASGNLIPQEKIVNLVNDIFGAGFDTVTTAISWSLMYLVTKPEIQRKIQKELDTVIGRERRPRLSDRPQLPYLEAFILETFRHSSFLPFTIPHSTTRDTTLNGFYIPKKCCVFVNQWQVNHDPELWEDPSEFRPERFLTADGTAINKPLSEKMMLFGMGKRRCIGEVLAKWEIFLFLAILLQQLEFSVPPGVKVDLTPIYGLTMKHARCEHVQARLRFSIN
Excerpt: as §1

In series [7] the target is CYP2C19 (Homo sapiens (Human), UniProt P33261). The series can be described thus: CYP inhibition test, CYP2C19. The series is classed as in vitro ADME. The note with it: pooled human liver microsomes; mephenytoin 4′-hydroxylation; given as 'five kinds'.
CYP2C19, sequence (P33261 whole entry): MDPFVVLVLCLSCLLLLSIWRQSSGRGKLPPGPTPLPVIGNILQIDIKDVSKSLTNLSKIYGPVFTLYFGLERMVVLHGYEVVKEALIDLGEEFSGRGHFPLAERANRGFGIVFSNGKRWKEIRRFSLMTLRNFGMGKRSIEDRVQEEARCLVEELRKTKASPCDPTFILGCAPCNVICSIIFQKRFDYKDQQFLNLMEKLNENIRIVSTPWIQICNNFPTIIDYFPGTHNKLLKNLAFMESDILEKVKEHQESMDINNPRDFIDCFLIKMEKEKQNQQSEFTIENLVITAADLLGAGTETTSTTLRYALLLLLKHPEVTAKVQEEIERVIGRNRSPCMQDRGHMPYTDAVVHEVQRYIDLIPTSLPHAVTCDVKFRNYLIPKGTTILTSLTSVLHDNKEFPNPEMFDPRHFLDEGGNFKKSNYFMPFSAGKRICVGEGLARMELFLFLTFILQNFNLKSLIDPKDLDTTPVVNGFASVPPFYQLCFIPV
Excerpt: as §1

Series [8] deals with hERG (IKr) (Homo sapiens (Human), UniProt Q12809). The series can be described thus: hERG test. It is filed as cell-based. The note with it: CHO cells expressing hERG channel, pH 7.4, 10 μmol/L of test compound, read-out: % inhibition of hERG tail peak current (IKr). An excerpt:
For the purpose of assessing risk of an electrocardiogram QT interval prolongation of the compound of the present invention, effects of the compound of the present invention on delayed rectifier K^+ current (IKr), which plays an important role in the ventricular repolarization process, was studied using CHO cells expressing human ether-a-go-go related gene (hERG) channel.
After a cell was retained at a membrane potential of −80 mV by whole cell patch clamp method using an automated patch clamp system (QPatch; Sophion BIoscience A/S), IKr induced by application of a leak potential of −50 mV followed by depolarization pulse stimulation at +20 mV for 2 seconds and, further, repolarization pulse stimulation at −50 mV for 2 seconds, was recorded. […] From the recording IKr, an absolute value of the tail peak current was measured based on the current value at the resting membrane potential using analysis software (Falster Patch; Sophion Bioscience A/S). Further, the % inhibition of tail peak current for the compound of the present invention relative to the tail peak current after application of the vehicle is calculated to assess influence of the compound of the present invention on IKr.

The nature of series [9]: Solubility test (1% DMSO addition, pH 6.8 artificial intestinal juice). As to conditions: kinetic from dmso stock, 16 hours at 25° C. The series is classed as physicochemical. Here is the method: The solubility of the compound of the present invention was determined under 1% DMSO addition conditions. 10 mmol/L solution of the compound was prepared with DMSO, and 6 μL of the solution of the compound of the present invention was added to 594 μL of pH 6.8 artificial intestinal juice (118 mL of 0.2 mol/L NaOH test solution and water were added to 250 mL of 0.2 mol/L potassium dihydrogen phosphate test solution to reach 1000 mL). The mixture was left standing for 16 hours at 25° C., and the mixture was vacuum-filtered. The filtrate was two-fold diluted with methanol/water=1/1 (V/V), and the compound concentration in the filtrate was measured with HPLC or LC/MS/MS by the absolute calibration method. The dilution concentration and the dilution solvent were changed as necessary.

Series [10] is described as follows: Solution stability test. As to conditions: 18 hr. The series is classed as physicochemical. Here is the method:
The compound of the present invention (0.4 mg) was weighed into a 4 mL screw vial, and 2 mL of various media pH=1 (0.1 N HClaq.+30% MeCN), pH=7 (pH 7 phosphate Buffer (100 mM+30% MeCN) or pH=9 (pH 9 carbonate Buffer (100 mM+30% MeCN) was added, respectively. Complete dissolution was confirmed. If not dissolved, filtration was performed with a 0.45 μm filter. The solution or filtrate was placed in an HPLC vial. HPLC sample cooler was set at 40° C., and sequence was set so that sampling was performed by HPLC at 0, 3, 6, 9, 12, 15, and 18 hours. Stability over time was evaluated by setting the area value of 0 hr product to 100%.

Series [11] concerns the target recombinant human MGAT2 (Homo sapiens (Human), UniProt Q3SYC2). The series can be described thus: Measurement of human MGAT2 inhibitory activity. It is filed as biochemical. As to conditions: concentration exhibiting 50% enzyme inhibition; recombinant human MGAT2, 2-Oleoylglycerol/Oleoyl-CoA. Summed up:
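Membrane fraction of baculovirus-infected Sf-9 cells expressing N-terminally Flag-tagged full-length human MGAT2, in 100 mmol/L phosphate pH 7.4 with 2 mmol/L DTT. The substrate solution held 30 μmol/L 2-oleoylglycerol and 10 μmol/L oleoyl-CoA. After 1 h at room temperature, diolein/diolein-d5 ratio was read by ESI Q-TOF MS and % inhibition derived against enzyme and no-enzyme controls.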

The results in this text go back to patent US12227509B2, “Dihydropyrazolopyrazinone derivative having MGAT2 inhibitory activity” (Shionogi & Co., Ltd., priority 2019, dated 2025).

In brackets after ≈: the same amount, converted by molar mass. A value given as a limit tells only on which side of the number the result lay.

Broadly, the IC50 is the midpoint of a concentration-inhibition curve. One may read the bioavailability as the share of a dose that reaches the circulation, judged against a reference dose that is usually intravenous. A low value points to poor availability. In general, inhibition refers to how much of the control response was suppressed. For orientation: solubility means the dissolved amount per volume that the medium holds. The low end stands for a poorly soluble substance, the high end for a readily soluble substance.

CYP3A4, sequence (P08684 whole entry): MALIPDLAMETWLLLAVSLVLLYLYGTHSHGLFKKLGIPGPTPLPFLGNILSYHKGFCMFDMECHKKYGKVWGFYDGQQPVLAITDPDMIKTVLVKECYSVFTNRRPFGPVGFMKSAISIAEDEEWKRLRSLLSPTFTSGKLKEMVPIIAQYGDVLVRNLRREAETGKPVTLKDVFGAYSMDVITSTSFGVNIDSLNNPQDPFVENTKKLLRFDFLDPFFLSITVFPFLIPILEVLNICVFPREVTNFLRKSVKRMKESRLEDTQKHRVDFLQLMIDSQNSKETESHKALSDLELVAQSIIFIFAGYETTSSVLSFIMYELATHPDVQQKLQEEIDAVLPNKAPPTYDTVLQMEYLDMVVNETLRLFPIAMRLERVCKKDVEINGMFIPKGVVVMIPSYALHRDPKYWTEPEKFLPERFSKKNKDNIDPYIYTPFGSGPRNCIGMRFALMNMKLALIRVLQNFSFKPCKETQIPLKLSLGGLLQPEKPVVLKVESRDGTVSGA
hERG (IKr), sequence (Q12809 whole entry): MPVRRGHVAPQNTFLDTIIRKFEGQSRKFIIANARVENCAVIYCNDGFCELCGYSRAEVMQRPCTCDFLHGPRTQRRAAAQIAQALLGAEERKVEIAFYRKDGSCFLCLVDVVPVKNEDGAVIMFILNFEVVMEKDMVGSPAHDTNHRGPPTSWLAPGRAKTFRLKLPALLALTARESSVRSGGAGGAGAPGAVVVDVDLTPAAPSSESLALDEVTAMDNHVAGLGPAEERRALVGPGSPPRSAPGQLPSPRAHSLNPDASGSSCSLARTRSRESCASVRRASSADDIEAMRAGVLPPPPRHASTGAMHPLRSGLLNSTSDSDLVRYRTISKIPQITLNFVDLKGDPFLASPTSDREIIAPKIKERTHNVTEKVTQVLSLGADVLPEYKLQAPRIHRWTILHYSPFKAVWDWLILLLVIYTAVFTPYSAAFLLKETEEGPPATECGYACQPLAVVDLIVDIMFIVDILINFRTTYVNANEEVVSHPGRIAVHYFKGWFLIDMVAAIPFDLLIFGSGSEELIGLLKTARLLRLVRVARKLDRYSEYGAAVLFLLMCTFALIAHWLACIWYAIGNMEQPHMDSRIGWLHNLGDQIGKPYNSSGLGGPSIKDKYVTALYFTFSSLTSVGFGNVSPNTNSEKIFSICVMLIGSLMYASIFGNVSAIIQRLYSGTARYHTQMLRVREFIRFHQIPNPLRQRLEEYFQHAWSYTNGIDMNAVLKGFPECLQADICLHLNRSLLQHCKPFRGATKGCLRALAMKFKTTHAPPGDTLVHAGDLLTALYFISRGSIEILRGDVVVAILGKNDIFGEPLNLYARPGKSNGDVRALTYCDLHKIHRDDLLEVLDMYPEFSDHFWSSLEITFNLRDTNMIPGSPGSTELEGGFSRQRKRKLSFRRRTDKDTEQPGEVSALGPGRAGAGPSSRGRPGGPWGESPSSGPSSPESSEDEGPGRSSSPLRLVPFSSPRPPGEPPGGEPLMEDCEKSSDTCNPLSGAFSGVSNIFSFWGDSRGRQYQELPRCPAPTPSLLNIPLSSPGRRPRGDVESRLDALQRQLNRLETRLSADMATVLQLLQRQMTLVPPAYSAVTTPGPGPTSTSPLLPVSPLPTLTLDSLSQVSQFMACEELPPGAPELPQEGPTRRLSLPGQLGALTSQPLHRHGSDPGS
CYP2D6, sequence (P10635 whole entry): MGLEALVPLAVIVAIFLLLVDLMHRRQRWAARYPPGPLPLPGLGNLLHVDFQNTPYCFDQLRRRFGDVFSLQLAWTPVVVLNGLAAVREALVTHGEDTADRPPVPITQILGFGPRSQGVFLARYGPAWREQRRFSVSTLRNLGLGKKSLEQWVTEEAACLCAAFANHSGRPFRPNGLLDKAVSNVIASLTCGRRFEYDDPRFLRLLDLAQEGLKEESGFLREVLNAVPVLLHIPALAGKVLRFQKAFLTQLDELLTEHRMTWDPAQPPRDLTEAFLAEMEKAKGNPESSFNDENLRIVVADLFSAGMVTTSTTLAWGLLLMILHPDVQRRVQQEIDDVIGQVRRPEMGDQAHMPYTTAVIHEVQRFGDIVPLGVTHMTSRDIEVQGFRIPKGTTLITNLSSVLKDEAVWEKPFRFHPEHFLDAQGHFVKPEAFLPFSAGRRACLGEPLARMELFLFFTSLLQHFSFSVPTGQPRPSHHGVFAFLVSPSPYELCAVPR
recombinant human MGAT2, sequence (Q3SYC2 whole entry): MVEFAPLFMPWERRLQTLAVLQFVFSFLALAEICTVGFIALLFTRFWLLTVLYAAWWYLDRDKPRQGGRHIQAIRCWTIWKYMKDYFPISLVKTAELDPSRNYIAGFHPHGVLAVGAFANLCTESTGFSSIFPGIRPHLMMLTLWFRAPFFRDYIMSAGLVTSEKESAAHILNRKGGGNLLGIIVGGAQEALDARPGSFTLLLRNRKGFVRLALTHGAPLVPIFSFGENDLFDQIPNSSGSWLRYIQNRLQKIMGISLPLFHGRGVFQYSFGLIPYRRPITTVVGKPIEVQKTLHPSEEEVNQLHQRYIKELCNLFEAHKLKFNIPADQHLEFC

Regarding `CS(=O)(=O)CC(=O)Nc1c(-c2ccc(F)c(F)c2)nn2c1C(=O)N[C@@]1(CCc3cc(OCC(F)(F)F)ccc31)C2` [Compound I-33], the IC50 in series [1], in series [3], in series [4], in series [6] and in [7] was more than 20 µM in each case. Moreover, in series [2], the Remaining rate was 98.5%. This compound returned a bioavailability in series [5] of 60.5%. Besides, the inhibition at 10 min, 10 μmol/L in [8] worked out at 21.3%.
In turn, `CS(=O)(=O)CC(=O)Nc1c(-c2ccc(Cl)cn2)nn2c1C(=O)N[C@@]1(CCOc3cc(F)cc(F)c31)C2` [Compound I-137] returned a Remaining rate in [2] of 101%. The bioavailability in series [5] stood at 49%. Also, the solubility at 16 h in series [9] is more than 50 µM. The inhibition at 10 min, 10 μmol/L in series [8] was determined as 23.6%.
`CS(=O)(=O)CC(=O)Nc1c(-c2ccc(C3CC3)cn2)nn2c1C(=O)N[C@@]1(CCc3cc(F)cc(F)c31)C2` [Compound I-141]: the 50% inhibitory concentration (IC50) in series [1], in series [3], in [4], in [6] and in series [7] was more than 20 µM throughout. In [2], this compound registered a Remaining rate of 99.4%. The compound also yielded a bioavailability in [5] of 67%. Also, in [9], the solubility at 16 h worked out at 48.9 µM (≈ 25.8 µg/mL). For the same compound, the inhibition at 10 min, 10 μmol/L in series [8] turned out to be 14%.
As to `CS(=O)(=O)CC(=O)Nc1c(-c2ccc(C#N)cn2)nn2c1C(=O)N[C@@]1(CCc3cc(OCC(F)(F)F)ccc31)C2` [Compound I-3], the Residual rate in series [10] (pH=1, 40° C.) stood at 100.2%; in series [10] (pH=7, 40° C.) it was 100.9%; in series [10] (pH=9, 40° C.), 100.2%. In addition, the concentration for half-maximal inhibition (IC50) in series [11] was 1.99 nM.
Turning to `CS(=O)(=O)CC(=O)Nc1c(-c2ccc(Cl)cn2)nn2c1C(=O)N[C@@]1(CCc3cc(F)cc(F)c31)C2` [Compound I-142], the IC50 in [1], in series [3], in [4], in series [6] and in [7] was more than 20 µM each time. Moreover, in [2], the Remaining rate was determined as 106%. Further, in series [5], the bioavailability came to 66.2%. This compound gave a solubility at 16 h in series [9] of more than 50 µM. The inhibition at 10 min, 10 μmol/L in [8] turned out to be 10.6%.
